target: T1, BaF3 BRAF-KIAA1549 fusion cells (Homo sapiens, UniProt P15056); experiment: BaF3 BRAF-KIAA1549 fusion cell proliferation assay (CellTiterGlo); type: cell-based; details: 96 hours incubation, potency code
T1 construct: The BRAF-KIAA1549 fusion mutant was subcloned into pMXs-IRES-Blasticidin (RTV-016, Cell Biolabs, San Diego, CA); fused on or other part: Q9HCM3 (UPF0606 protein KIAA1549)
In short: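 BaF3 cells stably transduced with a BRAF-KIAA1549 fusion, blasticidin-selected and growing without IL-3, were treated with compound for 96 h in RPMI/10% heat-inactivated FBS. Viability read as ATP content by CellTiterGlo luminescence, normalised to DMSO-treated cells. IC50 by Levenberg-Marquardt fit.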

T1 sequence (P15056 whole entry, change not shown, the tested form may be a part): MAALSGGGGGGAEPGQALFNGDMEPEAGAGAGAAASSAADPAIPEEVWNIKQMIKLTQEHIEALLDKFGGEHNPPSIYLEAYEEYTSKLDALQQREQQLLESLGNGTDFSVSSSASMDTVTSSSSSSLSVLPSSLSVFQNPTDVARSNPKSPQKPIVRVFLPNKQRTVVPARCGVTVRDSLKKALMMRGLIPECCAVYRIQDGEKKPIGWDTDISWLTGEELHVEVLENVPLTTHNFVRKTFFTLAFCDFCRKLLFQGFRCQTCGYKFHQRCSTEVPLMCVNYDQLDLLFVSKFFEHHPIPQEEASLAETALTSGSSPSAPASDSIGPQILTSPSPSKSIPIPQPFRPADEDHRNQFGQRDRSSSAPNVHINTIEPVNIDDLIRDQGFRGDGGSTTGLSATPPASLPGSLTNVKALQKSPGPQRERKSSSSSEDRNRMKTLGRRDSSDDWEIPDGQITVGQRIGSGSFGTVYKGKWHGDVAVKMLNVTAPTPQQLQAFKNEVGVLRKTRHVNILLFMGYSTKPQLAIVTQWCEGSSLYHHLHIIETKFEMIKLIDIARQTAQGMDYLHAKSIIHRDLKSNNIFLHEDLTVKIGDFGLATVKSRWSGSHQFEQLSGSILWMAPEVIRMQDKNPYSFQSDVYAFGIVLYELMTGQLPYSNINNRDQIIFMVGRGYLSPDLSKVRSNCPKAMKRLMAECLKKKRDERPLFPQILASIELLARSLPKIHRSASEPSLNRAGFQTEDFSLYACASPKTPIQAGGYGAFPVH

Cc1ccc(NC(=O)c2nccc(C(F)(F)F)c2F)cc1Nc1ncccc1-c1ncnc2[nH]cnc12 [IA-116, N-(3-((3-(9H-purin-6-yl)pyridin-2-yl)amino)-4-methylphenyl)-3-fluoro-4-(trifluoromethyl)picolinamide] and Cc1ccc(NC(=O)c2cc(C(F)(F)F)ccn2)cc1Nc1ncccc1-c1ncnc2[nH]cnc12 [Compound I-2, N-(3-(3-(9H-Purin-6-yl)pyridin-2-ylamino)-4-methylphenyl)-4-(trifluoromethyl)picolinamide] cannot be ordered by GI50: under 20 nM for the first, under 20 nM for the second.

Compared with Cc1ccc(NC(=O)c2cc(C#N)c(Cl)cn2)cc1Nc1ncccc1-c1ncnc2[nH]cnc12 [Compound I-39, N-(3-((3-(9H-purin-6-yl)pyridin-2-yl)amino)-4-methylphenyl)-5-chloro-4-cyanopicolinamide], COc1cnc(C(=O)Nc2ccc(C)c(Nc3ncccc3-c3ncnc4[nH]cnc34)c2)cc1C(F)(F)F [IA-100, N-(3-(3-(9H-purin-6-yl)pyridin-2-ylamino)-4-methylphenyl)-5-methoxy-4-(trifluoromethyl)picolinamide] is lower in GI50: at least 500 nM for the first, 20 to 100 nM for the second.

First: Cc1ccc(NC(=O)CN2CCCCCC2)cc1Nc1ncccc1-c1ncnc2[nH]cnc12 [IA-110, N-(3-((3-(9H-purin-6-yl)pyridin-2-yl)amino)-4-methylphenyl)-2-(azepan-1-yl)acetamide]
Second: Cc1ccc(NC(=O)CN2CCCCC(F)(F)C2)cc1Nc1ncccc1-c1ncnc2[nH]cnc12 [IA-112, N-(3-(3-(9H-purin-6-yl)pyridin-2-ylamino)-4-methylphenyl)-2-(3,3-difluoroazepan-1-yl)acetamide]
The GI50 of the first is lower: 20 to 100 nM for the first, 100 to 500 nM for the second.

First: Cc1ccc(NC(=O)C[C@H]2CCO[C@H](C(F)(F)F)C2)cc1Nc1ncccc1-c1ncnc2[nH]cnc12 (single isomer, unassigned) [IA-147]
Second: Cc1ccc(NC(=O)CN2CC[C@@H](C(F)(F)F)C2)cc1Nc1ncccc1-c1ncnc2[nH]cnc12 [IA-111, (R)—N-(3-(3-(9H-purin-6-yl)pyridin-2-ylamino)-4-methylphenyl)-2-(3-(trifluoromethyl)pyrrolidin-1-yl)acetamide]
The GI50 of the first is higher: 20 to 100 nM for the first, under 20 nM for the second.

Cc1ncc(NC(=O)c2ccnc(C(F)(F)F)c2)cc1Nc1ncccc1-c1ncnc2[nH]cnc12 [Compound I-17, N-(5-(3-(9H-purin-6-yl)pyridin-2-ylamino)-6-methylpyridin-3-yl)-2-(trifluoromethyl)isonicotinamide] showed a GI50 of 20 to 100 nM.

From patent US20240317752A1, “6-SUBSTITUTED-9H-PURINE DERIVATIVES AND RELATED USES” (Black Diamond Therapeutics, Inc., priority 2021, published 2024)
